Experimental data: PubChem BioAssay (NCI)
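Method: 48-hour compound exposure of cells in 96-well plates, five concentrations, linear interpolation of endpoints. The concentration for 50% growth inhibition is given as GI50. The concentration for full growth arrest is given as TGI.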

Tests used:
Assay in all cases: growth of human tumour cells (NCI), 48 h
SF-539 CNS = test system: SF-539 CNS
UACC-62 melanoma = test system: UACC-62 melanoma
A498 renal = test system: A498 renal
EKVX NSCLC = test system: EKVX NSCLC
NCI-H522 lung = test system: NCI-H522 lung
OVCAR-3 ovarian = test system: OVCAR-3 ovarian
NCI-H226 lung = test system: NCI-H226 lung
HS 578T breast = test system: HS 578T breast
MOLT-4 leukemia = test system: MOLT-4 leukemia
HOP-62 NSCLC = test system: HOP-62 NSCLC

| SMILES | GI50 (SF-539 CNS) | TGI (SF-539 CNS) | GI50 (UACC-62 melanoma) | TGI (UACC-62 melanoma) | GI50 (A498 renal) | TGI (A498 renal) | GI50 (EKVX NSCLC) | TGI (EKVX NSCLC) | GI50 (NCI-H522 lung) | TGI (NCI-H522 lung) | GI50 (OVCAR-3 ovarian) | TGI (OVCAR-3 ovarian) | GI50 (NCI-H226 lung) | TGI (NCI-H226 lung) | GI50 (HS 578T breast) | TGI (HS 578T breast) | GI50 (MOLT-4 leukemia) | TGI (MOLT-4 leukemia) | GI50 (HOP-62 NSCLC) | TGI (HOP-62 NSCLC) |
| --- | --- | --- | --- | --- | --- | --- | --- | --- | --- | --- | --- | --- | --- | --- | --- | --- | --- | --- | --- | --- |
| COc1cccc(/C(C#N)=C/c2nc3c(N4CCOCC4)nc(Cl)nc3n2C)c1 | 1.44 µM | 2.79 µM | 1.2 µM | 2.47 µM | 1.49 µM | 2.91 µM | 1.44 µM | 2.84 µM | 0.567 µM | 2.2 µM | 0.611 µM | 1.92 µM | 1.56 µM | 3.35 µM | 1590 nM | 5.88 µM | 1.27 µM | 4.79 µM | 1.6 µM | 3.64 µM |
| C[C@@H]1C[C@H](C)CN(S(=O)(=O)c2ccc3c(NO)c4ccc(S(=O)(=O)N5C[C@H](C)C[C@H](C)C5)cc4c(N=O)c3c2)C1 | 0.0564 µM | 0.207 µM | 0.181 µM | 0.345 µM |  | > 1 µM | 0.128 µM | 0.269 µM | 0.181 µM | 0.36 µM | 0.182 µM | 0.328 µM | 0.157 µM | 0.364 µM | 161 nM | 0.422 µM | 0.0478 µM | 0.194 µM | 0.171 µM | 0.324 µM |
| COC(=O)c1cc2c3ccccc3n3c(=O)c4cc5ccc(N(S(=O)(=O)c6ccc(C)cc6)S(=O)(=O)c6ccc(C)cc6)cc5nc4c(n1)c23 | 25.4 µM | > 100 µM | 29.7 µM | > 100 µM | 34.8 µM | 70.2 µM | 53.6 µM | > 100 µM | 83.7 µM | > 100 µM | > 100 µM | > 100 µM | 33.8 µM | > 100 µM | 29300 nM | > 100 µM | 28.6 µM | 64.5 µM | 16.1 µM | 45 µM |
| COc1ccc2cc(/C=C/C(=O)c3ccc(Cl)cc3Cl)ccc2c1 | 72.9 µM | > 100 µM | 21.6 µM | 79.4 µM | 28.8 µM | 58.9 µM | 41.7 µM | > 100 µM | 21.6 µM | > 100 µM | 26.2 µM | > 100 µM | 30.4 µM | > 100 µM | 39300 nM | > 100 µM | 11.3 µM | 35.5 µM | 39.3 µM | > 100 µM |
| CC(=O)c1ccc2c(c1)C1C=CCC1[C@H](c1cc3c(cc1Br)OCO3)N2 (some centres undefined) | 0.893 µM | 2.37 µM | 1.46 µM | > 31.1 µM | 0.482 µM | 2.14 µM | 1.38 µM | > 52.5 µM | 0.84 µM | 4.87 µM | 0.48 µM | 1.08 µM | 1.74 µM | > 32.6 µM | 713 nM | 2.19 µM | 1.03 µM | 7.77 µM | 1.9 µM | 28.9 µM |
| CC(=O)Oc1ccc(C23c4ccccc4C2(OC(C)=O)c2cc(OC(C)=O)ccc23)cc1 (centres undefined) | 6.48 µM | 28.6 µM | 3.69 µM | 13.7 µM | 34.8 µM | > 100 µM | 3.52 µM | 16.6 µM | 2.81 µM | 8.04 µM | 8.32 µM | 52.9 µM | 20.4 µM | 63.2 µM | 2930 nM | > 100 µM | 7.27 µM | 72.2 µM | 8.78 µM | 34.5 µM |
| O=S(=O)(NC1=NCCN1C(=S)SN1CCn2c1nsc2=S)c1cccc2ccccc12 | 21.1 µM | 46 µM | 21 µM | 71.6 µM | 29.5 µM | 78 µM | 25.8 µM | > 100 µM | 12.2 µM | 36.1 µM | 16.5 µM | 40.3 µM | 30.6 µM | > 100 µM | 25500 nM | > 100 µM | 16.5 µM | 60.3 µM | 20.6 µM | 54.3 µM |
| CC[C@H](Nc1ncnc2nc[nH]c12)c1nc2cccc(F)c2c(=O)n1-c1ccccc1 | 19.7 µM | > 100 µM | 3.52 µM | > 92.4 µM | 1.3 µM | 13 µM | 41.5 µM | > 100 µM | 28.8 µM | > 100 µM | 10.2 µM | > 100 µM | > 65.6 µM | > 100 µM | 4120 nM | > 88.3 µM | 13.9 µM | > 87.4 µM | > 100 µM | > 100 µM |
| COc1ccccc1C#Cc1ccccc1C#CCCCCO | 14.4 µM | 29.1 µM | 16 µM | 30.7 µM | 13.3 µM | 27.9 µM | 15.9 µM | 34.4 µM | 16.3 µM | 33.8 µM | 19.8 µM | 47.2 µM | 21.4 µM | 49.2 µM | 17000 nM | 55.4 µM | 19.6 µM | 96 µM | 14.6 µM | > 100 µM |
| O=[N+]([O-])c1cc(Cl)c2[nH]c3c(Cl)cc([N+](=O)[O-])cc3c2c1 | 0.653 µM | > 92.2 µM | 0.247 µM | > 100 µM | 0.15 µM | 1.36 µM | 0.244 µM | > 27.1 µM | 0.286 µM | > 100 µM | 0.279 µM | > 100 µM | 0.393 µM | > 100 µM | 609 nM | > 100 µM | 0.329 µM | > 100 µM | 0.971 µM | > 38.4 µM |
| Cc1[nH]nc(C(F)(F)F)c1N=NN(C)C |  | 20.7 µM |  | 20.6 µM |  | > 100 µM |  | 11.5 µM |  | 2.98 µM |  | 22.1 µM |  | 6.36 µM |  | 44.6 µM |  | 5.02 µM |  | 27 µM |
| COc1cc2ncn(-c3cc(OCc4ccccc4C(F)(F)F)c(C(=O)N(C)C)s3)c2cc1OC | > 25 µM | > 25 µM | 21.6 µM | > 25 µM | 4.58 µM | > 23.5 µM | > 25 µM | > 25 µM | 17.3 µM | > 25 µM | > 21.8 µM | > 25 µM | 5.85 µM | > 12.5 µM | > 25000 nM | > 25 µM | > 25 µM | > 25 µM | > 13.5 µM | > 25 µM |
| CCNc1cc(-c2cccc(OC(F)(F)F)c2)nc2ccc(N3CCCC3)cc12 | 1.73 µM | 3.36 µM | 1.57 µM | 3.07 µM | 1.07 µM | 2.76 µM | 2.49 µM | 11.1 µM | 1.45 µM | 3.65 µM | 1.56 µM | 3.14 µM | 1.67 µM | 4.53 µM | 1720 nM | 3.96 µM | 2.08 µM | 7.08 µM | 1.62 µM | 3.16 µM |
